pIC50: −log10 of the molar value. Like-named read-outs stand apart in the source and are kept apart here.
How the values were obtained:
AT-1 = test: Potentiation of daunorubicin (30 nM) in rat prostatic tumor cells AT-1 (cell survival, Coulter counter); format: cell-based
[1] = cited from earlier work
HCT-15 cells = test: In vivo HCT-15 subcutaneous xenograft in SCID mice, doxorubicin alone or plus compound 1:1; set-up: Significance (p) of difference in tumor growth between (1) vehicle and (2) doxorubicin, symbol * / Significance (p) of difference in tumor growth between (1) vehicle and (2) doxorubicin, symbol ***: dose or concentration left out as unconfirmed; conditions: days 9, 13, 17
HCT-15 = test: Potentiation of daunorubicin (50 nM) in human colon tumor cells HCT-15 (cell survival, Coulter counter); format: cell-based; conditions: HCT-15, read-out: IC50, HCT-15 (concentration required to reduce cell survival by 50%)
tumors = conditions: animal models; cited from earlier work
[2] = with daunorubicin 30 nM, 24 h, then 96 h drug free, AT-1, read-out: IC50, AT-1 (concentration required to reduce cell survival by 50%)

CC(=O)[C@H]1CC[C@H]2[C@@H]3CCC4=CC(=O)CC[C@]4(C)[C@H]3C(OC(=O)N(Cc3ccccc3)Cc3ccccc3)C[C@]12C (stereo partly shown) [1:35, pregn-4-ene-3,20-dione-11-yl, N,N-dibenzyl-carbamate]
pIC50 (AT-1; [2]): 6.82

COc1ccc(CCN(C)CCCC2(c3ccc4ccccc4c3)SCCCS2)cc1OC [RO 11-2933]
In vivo activity in combination with doxorubicin [1]: in vivo activity

CCCCN(CCCC)CCCNC(=O)OC(C)[C@H]1CC[C@H]2[C@@H]3CCC4=CC(=O)CC[C@]4(C)[C@H]3CC[C@]12C (stereo partly shown) [1:13, pregn-4-ene-3-one-20-yl, N-(3-dibutylamino-propyl)-carbamate]
pIC50 (AT-1; [2]): 6.68

CCCCN(CCCC)CCCNC(=O)OC1CC[C@@]2(C)C(=CC[C@H]3[C@@H]4CC[C@H](C(C)=O)[C@@]4(C)CC[C@@H]32)C1 (stereo partly shown) [1:4, pregn-5-ene-20-one-3-yl, N-(3-dibutylamino-propyl)-carbamate]
pIC50 (AT-1; [2]): 6.72

COc1cccc2c1C(=O)c1c(O)c3c(c(O)c1C2=O)C[C@@](O)(C(=O)CO)C[C@@H]3O[C@H]1C[C@H](N)[C@H](O)[C@H](C)O1 [doxorubicin]
Significance (p) of difference in tumor growth between (1) vehicle and (2) doxorubicin, symbol * (HCT-15 cells; doxorubicin i.v., symbol *): < 0.05 | Significance (p) of difference in tumor growth between (1) vehicle and (2) doxorubicin, symbol *** (HCT-15 cells; doxorubicin i.v., symbol ***): < 0.005

CCCCN(CCCC)C(=O)OC1C[C@]2(C)[C@@H](C(C)=O)CC[C@H]2[C@@H]2CCC3=CC(=O)CC[C@]3(C)[C@@H]12 (stereo partly shown) [Compound 1:1, pregn-4-ene-3,20-dione-11-yl, N,N-dibutylcarbamate]
pIC50 (AT-1; [2]): 6.12 | Potentiating effect in vivo (HCT-15 cells; compound 1:1 400 mg/kg p.o. 2 hours before doxorubicin i.v.): potentiating effect | pIC50 (HCT-15; with daunorubicin 50 nM, 24 h, then 96 h drug free): 6.29

CC12CCC3c4ccc(OC(=O)N(CCCl)CCCl)cc4CCC3C1CCC2O (stereo not shown) [estramustine]
Potentiation of radiation effects on tumors (tumors): potentiate radiation effects on tumors | pIC50 (HCT-15): < 5.60

COc1ccc(CCN(C)CCCC(C#N)(c2ccc(OC)c(OC)c2)C(C)C)cc1OC (stereo not shown) [verapamil]
pIC50 (AT-1; read-out: IC50, AT-1 (concentration required to reduce cell survival by 50%)): 6.13 | pIC50 (HCT-15): 6.30

Source: US6046182A, “Steroid carbamates as potentiating agents” (Satish BATRA, priority 1996, dated 2000)
